Reference: PMC7156261 (Journal of medicinal chemistry, 2019)

Legend:
[1] = molecular target: TEM-1 β-lactamase WT (native enzyme) (Escherichia coli, UniProt P62593); assay: DSF shift in Tm after incubation with moxalactam, WT; assay type: binding; settings: 100-fold molar excess moxalactam
[2] = molecular target: TEM-1 β-lactamase M182T/G238S (Escherichia coli, UniProt P62593, G236S/M180T); assay: DSF shift in Tm after incubation with moxalactam, M182T/G238S; assay type: binding; settings: 100-fold molar excess moxalactam
TEM-1 β-lactamase G238S = TEM-1 β-lactamase G238S (Escherichia coli, UniProt P62593, G236S); assay: DSF shift in Tm after incubation with moxalactam, G238S; assay type: binding; settings: 100-fold molar excess moxalactam
TEM-1 β-lactamase M182T = TEM-1 β-lactamase M182T (Escherichia coli, UniProt P62593, M180T); assay: DSF shift in Tm after incubation with moxalactam, M182T; assay type: binding; settings: 100-fold molar excess moxalactam
[3] = van't Hoff enthalpy of unfolding; assay type: physicochemical; settings: Table S1
Sor/CR colloids = assay type: binding; settings: concentration of TEM-1 mutant at which 50% of fluorescent L2gd is displaced; 100 nM 5-MF-L2gd, 20 μM Sor/CR colloids

## CO[C@@]1(NC(=O)[C@H](C(=O)O)c2ccc(O)cc2)C(=O)N2C(C(=O)O)=C(CSc3nnnn3C)CO[C@@H]21 [moxalactam]
[1]
  lowering of Tm: 4.5 °C
[2]
  effect on Tm: no substantial effect
TEM-1 β-lactamase G238S
  destabilization (lowering of Tm): 1.9 °C
TEM-1 β-lactamase M182T
  destabilization (lowering of Tm): 4.1 °C

B1: WT: wild-type TEM-1 β-lactamase (protein, UniProt P62593 24-286, looked up)
Beta-lactamase TEM: HPETLVKVKDAEDQLGARVGYIELDLNSGKILESFRPEERFPMMSTFKVLLCGAVLSRVDAGQEQLGRRIHYSQNDLVEYSPVTEKHLTDGMTVRELCSAAITMSDNTAANLLLTTIGGPKELTAFLHNMGDHVTRLDRWEPELNEAIPNDERDTTMPAAMATTLRKLLTGELLTLASRQQLIDWMEADKVAGPLLRSALPAGWFIADKSGAGERGSRGIIAALGPDGKPSRIVVIYTTGSQATMDERNRQIAEIGASLIKHW
[3]
  van't Hoff enthalpy of unfolding: 583.7 kJ/mol
Sor/CR colloids
  EC50: 577 ± 303 µM
